These results are taken from patent US9212151B2, “Heterocyclic compounds useful for kinase inhibition” (Amitech Therapeutic Solutions, Inc., priority 2010, dated 2015).

The nature of data set [1]: MTT cell viability assay, compounds at 5, 1 and 0.2 μM, 48 hours. The class given is cell-based. The note with it: human, A549 tumor cells. An outline of the steps:
(§1)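 A549 cells were seeded at 2500/well in DMEM + 10% FBS, grown overnight, then exposed to compound for 48 h. Viability was read by MTT (5 mg/ml, 4 h), with formazan dissolved in DMSO and absorbance measured at 560/570 nm to give survival rate.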
Background: Tetrazolium assays rely on reduction of a dye to a coloured formazan, in cell work by metabolically active cells.

In the next data set the test system is Tumor cells (A549). The description is as above. It is filed as cell-based. An outline of the steps:
as §1

The viability is a read-out of living cells in per cent, often relative to untreated cells.

`CCOc1nc(N)cc(Oc2cccc(-c3nnc(Nc4cccc(C(F)(F)F)c4)[nH]3)c2)n1` [Compound 97] returned a viability at 48 h, 0.2 µM in data set [1] (0.2 μM) of more than 70%. The molecule further returned a viability at 48 h, 1 µM in data set [1] (1 μM) of more than 70%. The viability at 48 h, 5 µM in data set [1] (5 μM) is more than 70%.

Take `Cc1cc(Oc2cccc(-c3nnc(Nc4cccc(C(F)(F)F)c4)[nH]3)c2)nc(N)n1` [Compound 95]: the results for the “% Viability A549” value in the data set with Tumor cells (A549) (0.2 μM), with Tumor cells (A549) (1 μM) and in the data set on Tumor cells (A549) (5 μM) were “+++ (+++: >70%)”, “+++ (+++: >70%)” and “++ (++: 50-70%)”, respectively.

In the case of `COc1cc(Oc2cccc(-c3nnc(Nc4cccc(C(F)(F)F)c4)[nH]3)c2)ncn1` [Compound 93], in data set [1] (0.2 μM), the viability at 48 h, 0.2 µM was more than 70%. Further, the viability at 48 h, 1 µM in data set [1] (1 μM) was more than 70%. This molecule yielded a viability at 48 h, 5 µM in data set [1] (5 μM) of 50 to 70%.

In data set [1] (0.2 μM), `NS(=O)(=O)c1cnccc1Oc1ccc(-c2nnc(Nc3cccc(C(F)(F)F)c3)[nH]2)cc1` [Compound 7] yielded a viability at 48 h, 0.2 µM of more than 70%. In data set [1] (1 μM), the viability at 48 h, 1 µM was more than 70%. The molecule further displayed a viability at 48 h, 5 µM in data set [1] (5 μM) of more than 70%.

Regarding `FC(F)(F)c1cccc(Nc2nnc(-c3ccc(Oc4ccncc4)cc3)[nH]2)c1` [Compound 3], the viability at 48 h, 0.2 µM in data set [1] (0.2 μM) is more than 70%. Also, in data set [1] (1 μM), the viability at 48 h, 1 µM lay in the range of 50 to 70%. Besides, the viability at 48 h, 5 µM in data set [1] (5 μM) was less than 50%.

`CS(=O)(=O)c1nc(N)cc(Oc2ccc(-c3nnc(Nc4cccc(C(F)(F)F)c4)[nH]3)cc2)n1` [Compound 64] registered a viability at 48 h, 0.2 µM in data set [1] (0.2 μM) of more than 70%. In data set [1] (1 μM), the viability at 48 h, 1 µM was more than 70%. Besides, the viability at 48 h, 5 µM in data set [1] (5 μM) was more than 70%.

`FC(F)(F)c1cccc(Nc2nnc(-c3ccc(Oc4ccncc4)cc3Cl)[nH]2)c1` [Compound 111] yielded a viability at 48 h, 0.2 µM in data set [1] (0.2 μM) of more than 70%. Further, the viability at 48 h, 1 µM in data set [1] (1 μM) was more than 70%. The viability at 48 h, 5 µM in data set [1] (5 μM) was more than 70%.

The molecule `CSc1nc(N)cc(Oc2ccc(-c3nnc(Nc4cc(C)ccc4C)[nH]3)cc2)n1` [Compound 67] gave a viability at 48 h, 0.2 µM in data set [1] (0.2 μM) of 50 to 70%. In data set [1] (1 μM), the viability at 48 h, 1 µM is less than 50%. This molecule also yielded a viability at 48 h, 5 µM in data set [1] (5 μM) of less than 50%.

In data set [1] (0.2 μM), `CN(C)c1cc(Oc2ccc(-c3nnc(Nc4cccc(C(F)(F)F)c4)[nH]3)cc2)c2ccccc2n1` [Compound 190] displayed a viability at 48 h, 0.2 µM of more than 70%. Further, the viability at 48 h, 1 µM in data set [1] (1 μM) was more than 70%. The molecule further registered a viability at 48 h, 5 µM in data set [1] (5 μM) of 50 to 70%.

`COc1ccc2c(Oc3cccc(-c4nnc(Nc5cccc(C(F)(F)F)c5)[nH]4)c3)cc(C)nc2c1` [Compound 194] registered a viability at 48 h, 0.2 µM in data set [1] (0.2 μM) of more than 70%. In data set [1] (1 μM), this molecule registered a viability at 48 h, 1 µM of more than 70%. In addition, the viability at 48 h, 5 µM in data set [1] (5 μM) is more than 70%.

For `FC(F)(F)c1cccc(Nc2nnc(-c3cccc(Oc4ccncc4C(F)(F)F)c3)[nH]2)c1` [Compound 20], in data set [1] (0.2 μM), the viability at 48 h, 0.2 µM was more than 70%. The molecule further had a viability at 48 h, 1 µM in data set [1] (1 μM) of more than 70%. In data set [1] (5 μM), this molecule gave a viability at 48 h, 5 µM of 50 to 70%.

In data set [1] (0.2 μM), `FC(F)(F)c1cccc(Nc2nnc(-c3cccc(Oc4ccnc5cc(OCc6ccccc6)ccc45)c3)[nH]2)c1` [Compound 193] showed a viability at 48 h, 0.2 µM of more than 70%. Further, the viability at 48 h, 1 µM in data set [1] (1 μM) is more than 70%. The molecule also came in with a viability at 48 h, 5 µM in data set [1] (5 μM) of more than 70%.

As to `COc1ccc2c(Oc3ccc(Nc4nnc(-c5cccc(Cl)c5)[nH]4)cc3)ccnc2c1` [Compound 198], the viability at 48 h, 0.2 µM in data set [1] (0.2 μM compound) is more than 70%. Further, in data set [1] (1 μM compound), the viability at 48 h, 1 µM is more than 70%. The same molecule returned a viability at 48 h, 5 µM in data set [1] (5 μM compound) of more than 70%.

With `COc1cc(-c2nnc(Nc3cccc(C(F)(F)F)c3)[nH]2)ccc1Oc1ccncc1` [Compound 108], the viability at 48 h, 0.2 µM in data set [1] (0.2 μM) is more than 70%. The viability at 48 h, 1 µM in data set [1] (1 μM) is more than 70%. Besides, in data set [1] (5 μM), the viability at 48 h, 5 µM was less than 50%.

`CSc1nc(N)cc(Oc2ccc(-c3nnc(Nc4ccccc4C)[nH]3)cc2)n1` [Compound 154] came in with a viability at 48 h, 0.2 µM in data set [1] (0.2 μM) of 50 to 70%. Also, the viability at 48 h, 1 µM in data set [1] (1 μM) was less than 50%. Also, in data set [1] (5 μM), the viability at 48 h, 5 µM is less than 50%.

With `CSc1nc(N)cc(Oc2ccc(-c3nnc(Nc4cc(C(C)(C)C)n[nH]4)[nH]3)cc2)n1` [Compound 132], the viability at 48 h, 0.2 µM in data set [1] (0.2 μM) was more than 70%. The viability at 48 h, 1 µM in data set [1] (1 μM) was more than 70%. Besides, the viability at 48 h, 5 µM in data set [1] (5 μM) was less than 50%.

In turn, `CSc1nc(N)cc(Oc2ccc(-c3nnc(Nc4cccc(C(F)(F)F)c4)[nH]3)cc2C)n1` [Compound 102] came in with a viability at 48 h, 0.2 µM in data set [1] (0.2 μM) of more than 70%. For the same molecule, the viability at 48 h, 1 µM in data set [1] (1 μM) is more than 70%. This molecule also gave a viability at 48 h, 5 µM in data set [1] (5 μM) of more than 70%.

As to `Nc1cc(Oc2cccc(-c3nnc(Nc4cccc(C(F)(F)F)c4)[nH]3)c2)c2ccccc2n1` [Compound 86], in data set [1] (0.2 μM), the viability at 48 h, 0.2 µM was more than 70%. For the same molecule, the viability at 48 h, 1 µM in data set [1] (1 μM) is more than 70%. In data set [1] (5 μM), this molecule yielded a viability at 48 h, 5 µM of more than 70%.

Regarding `Nc1cc(Oc2cccc(-c3nnc(Nc4cccc(C(F)(F)F)c4)[nH]3)c2)ccn1` [Compound 18], the viability at 48 h, 0.2 µM in data set [1] (0.2 μM) fell in the range of 50 to 70%. Also, the viability at 48 h, 1 µM in data set [1] (1 μM) is less than 50%. The viability at 48 h, 5 µM in data set [1] (5 μM) was less than 50%.

In data set [1] (0.2 μM), `CSc1nc(N)cc(Oc2c(C)cc(-c3nnc(Nc4cccc(C(F)(F)F)c4)[nH]3)cc2C)n1` [Compound 110] gave a viability at 48 h, 0.2 µM of more than 70%. The molecule also showed a viability at 48 h, 1 µM in data set [1] (1 μM) of more than 70%. In data set [1] (5 μM), this molecule came in with a viability at 48 h, 5 µM of more than 70%.

`CSc1nc(N)cc(Oc2ccc(-c3nnc(Nc4cccc(C)c4)[nH]3)cc2)n1` [Compound 65]: the viability at 48 h, 0.2 µM in data set [1] (0.2 μM) was more than 70%. In data set [1] (1 μM), this molecule had a viability at 48 h, 1 µM of more than 70%. For the same molecule, the viability at 48 h, 5 µM in data set [1] (5 μM) lay within 50 to 70%.

In data set [1] (0.2 μM), `COc1nccc(Oc2cccc(-c3nnc(Nc4cccc(C(F)(F)F)c4)[nH]3)c2)n1` [Compound 88] showed a viability at 48 h, 0.2 µM of more than 70%. This molecule showed a viability at 48 h, 1 µM in data set [1] (1 μM) of more than 70%. The molecule also displayed a viability at 48 h, 5 µM in data set [1] (5 μM) of more than 70%.

The molecule `CSc1nc(N)cc(Oc2cccc(-c3nnc(Nc4ccc(F)c(C(F)(F)F)c4)[nH]3)c2)n1` [Compound 106] displayed a viability at 48 h, 0.2 µM in data set [1] (0.2 μM) of more than 70%. Besides, in data set [1] (1 μM), the viability at 48 h, 1 µM was more than 70%. In data set [1] (5 μM), the viability at 48 h, 5 µM was more than 70%.
